# From US20080242669A1, “METHODS RELATING TO THE TREATMENT OF FIBROTIC DISORDERS” (UNIVERSITY OF WASHINGTON, priority 2005, published 2008)
# Experiments:
# S100A4 (FSP-1) = assay: Western blot for S100A4 on whole cell lysates of IPF patient fibroblasts; type: cell-based, human; conditions: IPF patient fibroblasts / ATCC IPF cells, RPMI1640+10% FBS, 2 days
# Experimental: (§1) Western blots for S100A4 (also know as FSP-1 or fibroblast specific protein-1) and E-Cadherin were performed on whole cell lysates (FIG. 20).
# Aquaporin 5 = Aquaporin 5 immunostaining of lung tissue in bleomycin mouse model; type: in vivo; conditions: bleomycin and ICG-001 vs bleomycin alone
# Experimental: The aquaporins are water channels expressed in a variety of cell types. Aquaporin 5 is involved in the transportation of water across the apical surface of the alveolar epithelium and the epithelia of the submucosal glands in the upper airway and nasopharynx. (Krane, C. M., P.N.A.S. 98:14192-4, 2001; Yang, F. J. Biol. Chem. 278:32173-80, 2003). Because aquaporin 5 is a marker of Type 1 (differentiated) lung epithelium, its expression was assayed in lung tissue treated with bleomycin (FIG. 22A), bleomycin and ICG-001 (FIG. 22B), and saline (FIG. 22C), using the animal model as described in Example 2 (FIG. 15), and immunostaining with an antibody specific for Aquaporin 5.
# E-Cadherin = assay: Western blot for E-Cadherin on whole cell lysates of IPF patient fibroblasts; type: cell-based, human; conditions: RPMI1640+10% FBS, 2 days
# Experimental: as §1
# [1] = system: bleomycin induced fibrosis; assay: Bleomycin induced murine pulmonary fibrosis model (lung sections stained for collagen, body weight, survival); type: in vivo, mouse
# Experimental: Murine models of bleomycin induced fibrosis have been developed in order to study fibrotic disease progression.
# There is an absence of airway epithelium in lower left compared to upper left (see arrow heads) and extensive collagen deposition (lower left). On the sixth day, either saline (upper right) or ICG-001 (5 mgs/Kg/day) was administered for 10 days after which the mice were sacrificed and sectioned. Of interest is the upper right (saline treatment) showing lack of normal airway epithelialization, extensive collagen deposition and intra-airway hypercellularity (fibroblasts and inflammatory influx).
# FIGS. 16 and 17 show RT-PCR data for S100A4 (FIG. 16) and collagen1A2 (FIG. 17), which are increased in the bleomycin treated mice (treated with saline control).
# The procedures were performed using the animal model as described in Example 2 (FIG. 15), and the sectioned lungs were stained for collagen.
# [2] = system: TCF/β-Catenin driven β-Galactosidase expression; assay: TCF/β-catenin driven β-galactosidase reporter in lungs of bleomycin-treated Bat-Gal transgenic mice (X-Gal staining); type: in vivo, mouse; conditions: intratracheal bleomycin, 5 mg/Kg/day via minipump (subcutaneously)
# Experimental: Using this murine model of pulmonary fibrosis in transgenic Bat-Gal mice, ICG-001 (5 mg/Kg/day, administered via minipump) blocked >95% of bleomycin-induced TCF/O-catenin transcription.
# These mice have a Beta-Galactosidase transgene driven by a TCF/Catenin driven promoter (i.e. a read out for activated Wnt/catenin signaling). The mice were given intratracheal saline or bleomycin and either treated with ICG-001 (5 mgs/Kg/day subcutaneously) or saline as vehicle control. The mice were sacrificed and the lungs sectioned and stained with X-Gal (blue color) A) intratracheal bleo+saline. B) intracheal bleo+ICG-001 C) saline+saline.
# The dose was selected because ICG-001 reduces TCF/β-Catenin driven β-Galactosidase expression >95% at 5 mgs/Kg/day.
# [3] = C57/B16 mice, bleomycin 5 days, then 5 mgs/Kg/day for 10 days
# [4] = bleomycin and ICG-001 vs bleomycin
# [5] = bleomycin model, 5 mg/Kg/day via minipump
smiles,measurement,setting,value
O=C1[C@H](Cc2ccc(O)cc2)N2C(=O)CCN(C(=O)NCc3ccccc3)[C@H]2CN1Cc1cccc2ccccc12 [ICG-001],S100A4 expression (Western blot),S100A4 (FSP-1),decreased
same,aquaporin 5 expression in lung tissue (immunostaining),Aquaporin 5,greatly increased
same,E-cadherin expression (Western blot; also mRNA level),E-Cadherin,increased
same,airway appearance in trichrome stained lung sections,[1]; [3],essential normal
same,body weight,[1]; [3],regained normal body weight
same,collagen levels in trichrome stained lung sections,[1]; [3],normal collagen levels
same,survival,"[1]; C57/B16 mice, bleomycin 5 days, then 5 mgs/Kg/day for 10 days, untreated controls did not survive",survived
same,alveolar fibrosis (lungs stained for collagen),[1]; [4],prevented
same,interstitial fibrosis (lungs stained for collagen),[1]; [4],prevented
same,"disease progression, as judged by mortality, histopathology and endogenous gene expression",[1]; [5],not only halted but reversed
same,mortality,[1]; [5],reduced
same,fibrosis over the 25 days of treatment,"[1]; bleomycin model, 25 days of treatment",reversed fibrosis
same,block of bleomycin-induced TCF/β-catenin transcription (β-Galactosidase expression),[2],> 95%
